Among the data in US10941152B2, “Pyrazole compounds as modulators of FSHR and uses thereof” (TOCOPHERX, INC., priority 2014, dated 2021) are EC50 values, retold here.

The target of one assay is T1, FSHR (Homo sapiens, UniProt P23945).
T1 construct: expressed in transfected cells; host or cells: CHO (Cho-FSHR-LUC-1-1-43)
T1 sequence (P23945 18-695): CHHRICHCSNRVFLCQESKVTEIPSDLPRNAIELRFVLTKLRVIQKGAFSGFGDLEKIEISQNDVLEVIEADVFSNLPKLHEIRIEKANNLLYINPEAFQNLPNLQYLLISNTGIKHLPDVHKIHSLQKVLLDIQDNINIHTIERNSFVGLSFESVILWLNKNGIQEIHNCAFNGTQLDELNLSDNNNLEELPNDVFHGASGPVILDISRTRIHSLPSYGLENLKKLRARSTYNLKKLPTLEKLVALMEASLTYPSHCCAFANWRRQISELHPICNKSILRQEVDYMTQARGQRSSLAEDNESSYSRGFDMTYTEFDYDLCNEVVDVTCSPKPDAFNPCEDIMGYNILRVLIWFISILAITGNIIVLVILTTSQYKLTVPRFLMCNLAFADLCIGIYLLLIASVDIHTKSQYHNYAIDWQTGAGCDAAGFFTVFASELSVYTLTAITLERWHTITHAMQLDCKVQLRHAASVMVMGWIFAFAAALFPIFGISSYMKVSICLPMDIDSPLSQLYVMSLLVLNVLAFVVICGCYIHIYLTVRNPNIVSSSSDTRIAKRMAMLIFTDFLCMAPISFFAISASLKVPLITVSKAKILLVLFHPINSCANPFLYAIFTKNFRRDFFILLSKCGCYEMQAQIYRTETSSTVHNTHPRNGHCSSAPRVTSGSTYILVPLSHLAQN
In words: EC50 of cyclic AMP production in CHO FSHR cells + EC20 FSH (Assay A). Format: cell-based. The following applies: cyclic AMP production in CHO FSHR cells + EC20 FSH (0.265 pM), HTRF. The gist of the method: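 CHO cells expressing FSHR, stimulated 1 h at 37° C with compound plus EC20 FSH (0.265 pM final) and 200 μM IBMX. cAMP measured by HTRF (665/620 nm ratio) after 1 h at room temperature; effect expressed relative to maximum response of FSH standard.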

Assay [1] addresses T2, follicle-stimulating hormone (FSH) receptor (Rattus norvegicus, UniProt P20395).
T2 construct: endogenous in cells; host or cells: rat granulosa cells
T2 sequence (P20395 18-692): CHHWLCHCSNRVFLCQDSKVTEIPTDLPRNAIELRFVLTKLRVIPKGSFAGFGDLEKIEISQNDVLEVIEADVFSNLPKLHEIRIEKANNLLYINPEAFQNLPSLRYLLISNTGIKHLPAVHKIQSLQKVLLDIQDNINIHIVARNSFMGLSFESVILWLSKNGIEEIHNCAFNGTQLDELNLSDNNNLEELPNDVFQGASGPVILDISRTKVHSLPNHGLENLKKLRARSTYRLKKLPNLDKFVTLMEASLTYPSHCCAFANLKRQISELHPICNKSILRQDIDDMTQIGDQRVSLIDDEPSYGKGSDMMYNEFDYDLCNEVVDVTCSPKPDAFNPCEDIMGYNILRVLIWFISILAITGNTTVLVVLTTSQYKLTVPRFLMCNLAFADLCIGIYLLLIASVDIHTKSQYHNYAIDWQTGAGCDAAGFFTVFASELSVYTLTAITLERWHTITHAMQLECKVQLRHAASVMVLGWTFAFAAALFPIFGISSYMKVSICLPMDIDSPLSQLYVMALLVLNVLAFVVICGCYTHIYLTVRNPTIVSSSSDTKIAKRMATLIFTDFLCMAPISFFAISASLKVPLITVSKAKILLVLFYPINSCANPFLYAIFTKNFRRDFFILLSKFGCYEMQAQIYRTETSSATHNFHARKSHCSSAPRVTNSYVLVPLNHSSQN
Put plainly: Rat granulosa EC50 FSH (Assay B). Format: cell-based. The method, then: Example 25. Rat granulosa EC50 FSH (Assay B)
The assay was performed pursuant to the teaching of Yanofsky et al. (2006) Allosteric activation of the follicle-stimulating hormone (FSH) receptor by selective, nonpeptide agonists (JBC 281(19): 13226-13233, which is incorporated by reference in the disclosure of the invention).

Some results are limits rather than exact numbers.

Turning to `COc1cc2c(cc1-c1ccn(C)n1)-c1c(c(C(=O)N(CCO)C(C)(C)C)nn1-c1cc(Cl)cc(Cl)c1)CO2` [Compound 122, N-tert-butyl-1-(3,5-dichlorophenyl)-N-(2-hydroxyethyl)-7-methoxy-8-(1-methyl-1H-pyrazol-3-yl)-1,4-dihydrochromeno[4,3-c]pyrazole-3-carboxamide], the values for the EC50 (on FSHR; in assay [1]) were 0.01 to 0.1 µM and 0.101 to 0.5 µM, respectively.
The matching figures for `COc1cc(OC)cc(-n2nc(C(=O)N3CCOCC3(C)C)c3c2-c2cc(-c4cncc(C)c4)c(OC)cc2OC3)c1` [Compound 43, (1-(3,5-dimethoxyphenyl)-7-methoxy-8-(5-methylpyridin-3-yl)-1,4-dihydrochromeno[4,3-c]pyrazol-3-yl)(3,3-dimethylmorpholino)methanone]: less than 0.01 µM and 0.01 to 0.1 µM.
For the compound `COc1cc2c(cc1-c1cnn(CCO)c1)-c1c(c(C(=O)N(C)C(C)(C)C)nn1-c1ccsc1)CO2` [Compound 76, N-tert-butyl-8-(1-(2-hydroxyethyl)-1H-pyrazol-4-yl)-7-methoxy-N-methyl-1-(thiophen-3-yl)-1,4-dihydrochromeno[4,3-c]pyrazole-3-carboxamide], the values for the EC50 (at FSHR; in assay [1]) were 0.01 to 0.1 µM and greater than 0.5 µM, respectively.
The matching figures for `[2H]C([2H])([2H])Oc1cc(Cl)cc(-n2nc(C(=O)N(C)C(C)(C)C)c3c2-c2cc(-c4cncc(C#N)c4)c(OC([2H])([2H])[2H])cc2OC3)c1` [Compound 36, N-tert-butyl-1-(3-chloro-5-D3-methoxyphenyl)-8-(5-cyanopyridin-3-yl)-7-D3-methoxy-N-methyl-1H,4H-chromeno[4,3-c]pyrazole-3-carboxamide]: less than 0.01 µM and 0.01 to 0.1 µM.
For `COc1cc2c(cc1-c1ccccn1)-c1c(c(C(=O)N3CCC(O)CC3(C)C)nn1-c1cc(Cl)cc(Cl)c1)CO2` (stereo not drawn) [Compound 10, (1-(3,5-dichlorophenyl)-7-methoxy-8-(pyridin-2-yl)-1,4-dihydrochromeno[4,3-c]pyrazol-3-yl)(4-hydroxy-2,2-dimethylpiperidin-1-yl)methanone], in that order: less than 0.01 µM and 0.01 to 0.1 µM.
In the case of `COc1cc2c(cc1-c1ccn(C)n1)-c1c(c(C(=O)N3CC[S+]([O-])CC3(C)C)nn1-c1cc(Cl)cc(Cl)c1)CO2` (stereo not drawn) [Compound 5, 4-{[1-(3,5-dichlorophenyl)-7-methoxy-8-(1-methyl-1H-pyrazol-3-yl)-1H,4H-chromeno[4,3-c]pyrazol-3-yl]carbonyl}-3,3-dimethyl-1$1^4,4-thiomorpholin-1-one], the EC50 was 0.01 to 0.1 µM on FSHR and 0.101 to 0.5 µM in assay [1].
For the compound `COc1cc2c(cc1-c1cc(F)cc(CO)c1)-c1c(c(C(=O)N(C)C(C)(C)C)nn1-c1cc(Cl)cc(Cl)c1)CO2` [Compound 80, N-tert-butyl-1-(3,5-dichlorophenyl)-8-(3-fluoro-5-(hydroxymethyl)phenyl)-7-methoxy-N-methyl-1,4-dihydrochromeno[4,3-c]pyrazole-3-carboxamide], the values for the EC50 (on FSHR; in assay [1]) were less than 0.01 µM and 0.101 to 0.5 µM, respectively.
The matching figures for `CNC(=O)Cn1nc(C)c(-c2cc3c(cc2OC)OCc2c(C(=O)N(C)C(C)(C)C)nn(-c4cc(Cl)cc(Cl)c4)c2-3)c1C` [Compound 140]: less than 0.01 µM and 0.101 to 0.5 µM.
Regarding `COc1cc2c(cc1-c1nccc(C(N)=O)n1)-c1c(c(C(=O)N(C)C(C)(C)C)nn1-c1cc(Cl)cc(Cl)c1)CO2` [Compound 111, N-tert-butyl-8-(4-carbamoylpyrimidin-2-yl)-1-(3,5-dichlorophenyl)-7-methoxy-N-methyl-1,4-dihydrochromeno[4,3-c]pyrazole-3-carboxamide], the results for the EC50 (on FSHR; in assay [1]) were 0.01 to 0.1 µM and 0.101 to 0.5 µM, respectively.
The matching figures for `COc1cc2c(cc1-c1cnn(CC(=O)O)c1)-c1c(c(C(=O)N(C)C(C)(C)C)nn1-c1cc(F)cc(F)c1)CO2` [Compound 87, 2-(4-(3-(tert-butyl(methyl)carbamoyl)-1-(3,5-difluorophenyl)-7-methoxy-1,4-dihydrochromeno[4,3-c]pyrazol-8-yl)-1H-pyrazol-1-yl)acetic acid]: 0.01 to 0.1 µM and 0.101 to 0.5 µM.
As for `COc1cc2c(cc1-c1cccnc1F)-c1c(c(C(=O)N3CCOCC3(C)C)nn1-c1ccsc1)CO2` [Compound 61, (3,3-dimethylmorpholino)(8-(2-fluoropyridin-3-yl)-7-methoxy-1-(thiophen-3-yl)-1,4-dihydrochromeno[4,3-c]pyrazol-3-yl)methanone], the half-maximal effective concentration (EC50) was less than 0.01 µM on FSHR and 0.01 to 0.1 µM in assay [1].
For `COc1cc(OC)cc(-n2nc(C(=O)N3CC[S+]([O-])CC3(C)C)c3c2-c2cc(-c4cccnc4F)c(OC)cc2OC3)c1` (stereo not drawn) [Compound 40, (1-(3,5-dimethoxyphenyl)-8-(2-fluoropyridin-3-yl)-7-methoxy-1,4-dihydrochromeno[4,3-c]pyrazol-3-yl)(S-oxo-3,3-dimethylthiomorpholino)methanone], in that order: less than 0.01 µM and 0.01 to 0.1 µM.
On to `COc1cc2c(cc1-c1cc(C(N)=O)ncn1)-c1c(c(C(=O)N(C)C(C)(C)C)nn1-c1cc(Cl)cc(Cl)c1)CO2` [Compound 114, N-tert-butyl-8-(6-carbamoylpyrimidin-4-yl)-1-(3,5-dichlorophenyl)-7-methoxy-N-methyl-1,4-dihydrochromeno[4,3-c]pyrazole-3-carboxamide], for which the EC50 at FSHR lay in the range of 0.01 to 0.1 µM; in assay [1], 0.101 to 0.5 µM.
For `COc1cc(Cl)cc(-n2nc(C(=O)N(C)C(C)(C)C)c3c2-c2cc(-c4cnn(CCO)c4)c(OC)cc2OC3)c1` [Compound 79, N-tert-butyl-1-(3-chloro-5-methoxyphenyl)-8-(1-(2-hydroxyethyl)-1H-pyrazol-4-yl)-7-methoxy-N-methyl-1,4-dihydrochromeno[4,3-c]pyrazole-3-carboxamide], in that order: 0.01 to 0.1 µM and 0.101 to 0.5 µM.
The matching figures for `COc1cc2c(cc1-c1cncc(C(N)=O)c1)-c1c(c(C(=O)N3CC[S+]([O-])CC3(C)C)nn1-c1cc(F)cc(F)c1)CO2` (stereo not drawn) [Compound 163]: less than 0.01 µM and 0.101 to 0.5 µM.
Consider `COc1cc(Cl)cc(-n2nc(C(=O)N(C)C(C)(C)C)c3c2-c2cc(-c4ccn(C)n4)c(OC)cc2OC3)c1` [Compound 32, N-tert-butyl-1-(3-chloro-5-methoxyphenyl)-7-methoxy-N-methyl-8-(1-methyl-1H-pyrazol-3-yl)-1,4-dihydrochromeno[4,3-c]pyrazole-3-carboxamide], for which the EC50 on FSHR was in the range of 0.01 to 0.1 µM; in assay [1], 0.101 to 0.5 µM.
For the compound `COc1cc2c(cc1-c1c[nH]nn1)-c1c(c(C(=O)N(C)C(C)(C)C)nn1-c1ccsc1)CO2` [Compound 194, N-tert-butyl-7-methoxy-N-methyl-1-(thiophen-3-yl)-8-(1H-1,2,3-triazol-4-yl)-1,4-dihydrochromeno[4,3-c]pyrazole-3-carboxamide], the EC50 on FSHR is less than 0.01 µM; in assay [1], greater than 0.5 µM.
For `COc1cc2c(cc1-c1cnn(CC(=O)N3CCC3)c1)-c1c(c(C(=O)N(C)C(C)(C)C)nn1-c1cc(Cl)cc(Cl)c1)CO2` [Compound 95, 8-(1-(2-(azetidin-1-yl)-2-oxoethyl)-1H-pyrazol-4-yl)-N-tert-butyl-1-(3,5-dichlorophenyl)-7-methoxy-N-methyl-1,4-dihydrochromeno[4,3-c]pyrazole-3-carboxamide], in that order: 0.01 to 0.1 µM and 0.01 to 0.1 µM.

Broadly, the EC50 is the concentration needed to bring the measured effect to its halfway point.
